Data from patent US10357537B2, “Cyclotides as immunosuppressive agents” (priority 2011, dated 2019).
Bridge positions count the residues as written; N and C are the ends. Peptide text beside a SMILES is read from it.

Experiments:
[1] = system: IL2 release in human T-cells; test: IL2 release in human T-cells, ELISA; assay type: cell-based; settings: CsA, T20K 4 μM, V10K 4 μM; PHA-L, PMA/ionomycin
Method: B. IL2 release in human T-cells after treatment with cyclotide. […] After another two hours PHA-L (10 μg/mL) was added to the appropriate wells and incubated over night at 37° C. On the next day T-cells were re-stimulated with Ionomycin (500 ng/mL) and PMA (50 ng/mL) for 6 hours at 37° C. Cells were then centrifuged at 3000 rpm for 5 minutes to gain their supernatants. Supernatants of stimulated T-cells were analyzed for their IL2 release using a human IL-2 ELISA Kit from eBioscience according to the manufacturer's instructions. The color reaction was evaluated at an optical density of 450 nm by the microplate reader Synergy H4 (BioTek).
Moreover, supernatants of stimulated T-cells were analyzed for their IL2 release using a human IL-2 ELISA Kit from eBioscience according to the manufacturer's instructions. The color reaction was evaluated at an optical density of 450 nm by the microplate reader Synergy H4 (BioTek) (FIG. 12B).

[2] = system: IFN-gamma production of activated PBMCs; test: IFN-gamma secretion of PBMC, ELISA-based FACS; assay type: cell-based, human; settings: for IFN-gamma production as compared to the control, 36 h: 36 h past stimulation
Method: FIG. 14. IFN-γ secretion by cyclotide-treated PBMC. […] Untreated cells were used as control. Following 24 h or 36 h of cultivation, the cells were restimulated with PMA/Ionomycin for further 6 hour. The amount of IFN-γ was measured in the supernatant of cultured cells using an ELISA-based flow cytometric method. The data are presented as mean and standard deviation (SD) of three independent experiments.
Activated cells were resuspended in 50 μl of medium, transferred into a 96-well plate and treated with 10 μg/ml PHA-L. After incubation for 24 h cells were re-stimulated with PMA (50 ng/ml) und ionomycin (500 ng/ml) for 6 h. Next, the cells were transferred into Eppendorf tubes, centrifuged (5 min, 3000 RPM, 20° C.) und 50 μl of the supernatant was again transferred into new tubes and stored at −20° C. Production of cytokines was measured and quantified using the FlowCytomix™ kit according to manufacturer's instructions.
Therefore it is of interest to determine whether cyclotides only have anti-proliferative effects or also affect the effector function of T-lymphocytes, which would directly relate to changes in the IFN-gamma and TNF-alpha production. Therefore, the production of both cytokines of cyclotide-treated, activated PBMCs at an early time point after PBMC activation was tested.

Jurkat cells = test: Ca2+ release, Fura-2; assay type: cell-based, human; settings: CsA, T20K 4 μM, V10K 4 μM
Method: FIG. 17. Ca^2+ release in human Jurkat and T-cells. Jurkat cells (A) and T-cells (B) 1×10^6 were loaded with 1 μM Fura-2 and 0.02% Puronic F-127 for 30 minutes at 37° C. Cells were centrifuged for 5 minutes at 1200 rpm and resuspended in media [RPMI 1640 with 10% FCS, penicillin (100 U/mL) and streptomycin ([…])]. 100 μL of cell suspension were transferred to a black 96-well plate with a clear flat-bottom. Briefly before analysis the fluorometer Synergy H4 (BioTek) was tempered to 37° C. The fluorescence time course was then measured with: extinction 340/380 nm and emission 510 nm in 30 seconds intervals, continuously shaking. Ca^2+ influx was initiated by adding compounds to the cells (illustrated by the arrow). To receive maximum Ca^2+ release cells were stimulated with PMA (50 ng/mL) and Ionomycin (500 ng/mL) and T-cells additionally with PHA-L (10 μg/mL). For lowest Ca^2+ levels, cells remained untreated.
Jurkat cells T-cells were treated as described for FIG. 17, supra.

[3] = system: splenic T-cells of naive mouse group; test: Cytokine release of splenic T-cells of naive EAE mice treated in vitro, ELISA; assay type: cell-based; settings: for IL2 release after 48 h incubation: V10K 4 μM, MOG35-55 30 μg/mL
Method: FIG. 22. Effect on cytokine release of ex vivo isolated PBMC at day 1 and 2. […] To approve this EAE TH bias towards TH17 and TH1 cells, IL4 release was again analyzed, but this TH2 cytokine was not detectable (I, J), as already indicated in (D).
Spleens of sacrificed mice were taken and transferred into a 6 cm Petri Dish with 5 mL sterile PBS. To receive a spleenocyte suspension, spleens were meshed and filtered through 70 μm nylon sieve. Cells were centrifuged at 1200 rpm for 5 minutes and resuspended in RPMI 1640 media supplemented with 10% fetal calf serum (FCS), 2 mM L-glutamine, penicillin (100 U/mL), and streptomycin (100 μg/mL). Spleenocytes were cultivated at a concentration of 3×10^6/mL in a 48-well flat-bottom plate (500 μL/well). Cells were stimulated with 30 μg/mL MOG35-55 or left untreated and incubated at 37° C. for three days. Supernatants and cells were taken stored at −20° C. until further experiments. […] After 12 hours MOG or T20K was added to appropriate wells. Supernatants were stored after 24 hours and after 48 hours at −20° C.
Supernatants of stimulated spleenocytes were analyzed for their IL2, IL17, INFγ, IL4 and IL22 cytokine release using anti-mouse antibodies for ELISA from eBioscience according to the manufacturer's instructions. The color reaction was evaluated at an optical density of 450 nm by the microplate reader Synergy H4 (BioTek).

## CC(C)C[C@@H]1NC(=O)CNC(=O)[C@H](CC(N)=O)NC(=O)[C@H](CCCNC(=N)N)NC(=O)[C@H]([C@@H](C)O)NC(=O)[C@@H]2CSSC[C@@H]3NC(=O)[C@H]([C@@H](C)O)NC(=O)CNC(=O)CNC(=O)[C@H](C(C)C)NC(=O)[C@@H]4CSSC[C@H](NC(=O)[C@H](CCCCN)NC(=O)[C@H](CSSC[C@H](NC(=O)[C@H](C(C)C)NC(=O)[C@@H]5CCCN5C1=O)C(=O)NCC(=O)N[C@@H](CCC(=O)O)C(=O)N[C@@H]([C@@H](C)O)C(=O)N4)NC(=O)CNC(=O)[C@@H]1CCCN1C(=O)[C@H]([C@@H](C)O)NC(=O)[C@H](CC(N)=O)NC3=O)C(=O)N[C@@H](CO)C(=O)N[C@@H](Cc1c[nH]c3ccccc13)C(=O)N1CCC[C@H]1C(=O)N[C@@H](C(C)C)C(=O)N2 [Kalata T20K] (cyclo(CGETCVGGTCNTPGCKCSWPVCTRNGLPV); disulfide 1-15, 5-17, 10-22 (inferred); ring closure inferred)
[1]
  IL2 release in human T-cells: significant inhibition of cell proliferation in accordance to the IL2 level
[2]; 24 h + 6 h PMA/ionomycin, T20K 4 μM, CsA 5 μg/mL
  IFN-gamma concentration as compared to the control, 24 h: 21%±13.2
[2]
  IFN-gamma production as compared to the control, 36 h: did not induce significant changes in the level of IFN-gamma
Jurkat cells
  Ca2+ signaling in Jurkat cells: did not induce a change in Ca^2+ signaling
[3]; T20K 4 μM
  IL17 production after 48 h: inhibited
  IL2 release after 48 h incubation: significantly inhibited
[3]; T20K 4 μM compared with CsA 5 μg/mL
  IL2 inhibition after 24 h: non-significant to the immune suppressive agent CsA
[3]; dependent on the cyclotide addition
  INFγ and IL22 cytokine release: repressed significantly

## kalata B1 mutant GLPVCGETCKGGTCNTPGCTCSWPVCTRN (SEQ ID No. 10) [Kalata V10K]
[1]
  IL2 release in human T-cells: comparable results
[2]
  IFN-gamma production as compared to the control, 36 h: did not induce significant changes in the level of IFN-gamma
Jurkat cells
  Ca2+ signaling in Jurkat cells: did not induce a change in Ca^2+ signaling
[3]; T20K 4 μM
  IL2 release after 48 h incubation: shows a inhibitory capacity towards IL2 release
